Assay results reported in ChEMBL document CHEMBL3822442, “Synthesis and Pharmacological Characterization of Novel Glucagon-like Peptide-2 (GLP-2) Analogues with Low Systemic Clearance” (J Med Chem, 2016).
Activity calls are given as the source filed them. The calls are words filed in the database; no cut-off is given here. Non-standard residues stand in square brackets, D forms with d. Residues, ends and D or L forms follow the SMILES beside them. ξ: configuration not given here. ξhPhe = NC(CCc1ccccc1)C(=O)O; ξ2Thi = NC(Cc1cccs1)C(=O)O; ξNle = CCCCC(N)C(=O)O

Key:
[1] = target: T1, Glucagon-like peptide 2 receptor (Homo sapiens, UniProt O95838); test: Agonist activity at human GLP2R expressed in HEK293 cells after 5 hrs by luciferase reporter gene assay; type: cell-based
T1 sequence (O95838 whole entry): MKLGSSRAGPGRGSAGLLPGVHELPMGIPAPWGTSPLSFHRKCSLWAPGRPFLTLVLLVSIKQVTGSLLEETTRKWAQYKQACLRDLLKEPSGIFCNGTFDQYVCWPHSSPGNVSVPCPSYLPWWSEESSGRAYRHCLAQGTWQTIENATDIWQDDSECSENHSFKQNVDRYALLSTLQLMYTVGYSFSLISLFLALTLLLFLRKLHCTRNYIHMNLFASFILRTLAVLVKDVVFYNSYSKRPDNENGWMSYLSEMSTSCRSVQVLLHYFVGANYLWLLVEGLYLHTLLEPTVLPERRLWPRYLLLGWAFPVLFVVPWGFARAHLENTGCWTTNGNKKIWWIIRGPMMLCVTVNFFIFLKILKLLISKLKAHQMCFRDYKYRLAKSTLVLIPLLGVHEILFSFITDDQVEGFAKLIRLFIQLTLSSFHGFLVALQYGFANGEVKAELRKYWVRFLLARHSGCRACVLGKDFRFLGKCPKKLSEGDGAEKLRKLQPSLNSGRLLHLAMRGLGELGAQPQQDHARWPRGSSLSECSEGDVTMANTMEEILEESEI

[2] = target: Glucagon-like peptide 1 receptor (Homo sapiens, UniProt P43220); test: Agonist activity at human GLP1R expressed in HEK293 cells after 5 hrs by luciferase reporter gene assay; type: cell-based
HEK293 = test: Selectivity ratio of EC50 for human GLP1R expressed in HEK293 cells to EC50 for human GLP2R expressed in HEK293; type: cell-based
[3] = Systemic clearance in Sprague-Dawley rat at 0.2 mg/kg, iv through cassette dosing measured up to 300 mins by LC/MS/MS analysis; type: ADME, organism-based; conditions: in vivo
[4] = target: Glucagon receptor (Homo sapiens) (UniProt P47871); test: Agonist activity at human GCGR expressed in HEK293 cells up to 1000 nM after 5 hrs by luciferase reporter gene assay; type: cell-based
[5] = Protein binding in rat plasma at 200 to 1000 ng/ml incubated for 15 mins by LC/MS/MS based ultracentrifugation method; type: ADME, cell-free; conditions: read-out: PPB (converted)

Glucagon-like peptide 1 receptor, sequence (P43220 whole entry): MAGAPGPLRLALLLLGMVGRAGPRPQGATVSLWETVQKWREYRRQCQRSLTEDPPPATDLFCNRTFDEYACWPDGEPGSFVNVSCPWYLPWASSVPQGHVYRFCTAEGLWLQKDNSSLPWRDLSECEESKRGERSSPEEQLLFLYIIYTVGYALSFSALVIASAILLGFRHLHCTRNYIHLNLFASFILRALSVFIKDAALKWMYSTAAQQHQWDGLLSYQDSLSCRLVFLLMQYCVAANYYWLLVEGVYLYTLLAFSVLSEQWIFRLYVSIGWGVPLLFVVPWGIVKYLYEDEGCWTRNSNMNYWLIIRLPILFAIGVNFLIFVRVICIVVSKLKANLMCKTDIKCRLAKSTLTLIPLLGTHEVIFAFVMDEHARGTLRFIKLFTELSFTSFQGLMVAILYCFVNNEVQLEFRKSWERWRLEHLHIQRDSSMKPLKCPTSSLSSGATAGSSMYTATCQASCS
Glucagon receptor (Homo sapiens), sequence (P47871 whole entry): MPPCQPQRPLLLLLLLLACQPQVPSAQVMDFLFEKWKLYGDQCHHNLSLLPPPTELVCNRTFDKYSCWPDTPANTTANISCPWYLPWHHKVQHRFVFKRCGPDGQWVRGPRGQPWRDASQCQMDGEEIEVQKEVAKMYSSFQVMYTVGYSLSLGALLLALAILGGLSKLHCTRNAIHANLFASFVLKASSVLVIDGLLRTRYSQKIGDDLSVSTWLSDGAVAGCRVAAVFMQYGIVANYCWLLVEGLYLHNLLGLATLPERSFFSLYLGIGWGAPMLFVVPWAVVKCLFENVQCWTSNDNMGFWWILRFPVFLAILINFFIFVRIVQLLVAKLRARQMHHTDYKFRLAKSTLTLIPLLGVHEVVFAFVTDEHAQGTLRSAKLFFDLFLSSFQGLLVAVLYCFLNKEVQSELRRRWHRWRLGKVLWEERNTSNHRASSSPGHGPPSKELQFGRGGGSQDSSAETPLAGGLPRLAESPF

| SMILES | EC50 [1] | EC50 [2] | Ratio EC50 (HEK293) | clearance [3] | Activity [4] | fraction unbound at 0.25 h [5] |
| --- | --- | --- | --- | --- | --- | --- |
| CCCCC(NC(=O)[C@H](CCC(=O)O)NC(=O)[C@H](CC(=O)O)NC(=O)[C@H](CO)NC(=O)[C@H](Cc1ccccc1)NC(=O)[C@H](CO)NC(=O)CNC(=O)[C@H](CC(=O)O)NC(=O)CNC(=O)[C@@H](N)Cc1cnc[nH]1)C(=O)N[C@@H](CC(N)=O)C(=O)N[C@H](C(=O)N[C@H](C(=O)N[C@@H](CC(C)C)C(=O)N[C@@H](CC(=O)O)C(=O)NC(Cc1cccs1)C(=O)N[C@@H](CC(C)C)C(=O)N[C@@H](C)C(=O)N[C@@H](C)C(=O)N[C@@H](CCCNC(=N)N)C(=O)N[C@@H](CC(=O)O)C(=O)N[C@@H](Cc1ccccc1)C(=O)N[C@H](C(=O)N[C@@H](CC(N)=O)C(=O)N[C@@H](Cc1c[nH]c2ccccc12)C(=O)N[C@@H](CC(C)C)C(=O)N[C@H](C(=O)N[C@@H](CCC(N)=O)C(=O)N[C@H](C(=O)N[C@@H](CCCCN)C(N)=O)[C@@H](C)O)[C@@H](C)CC)[C@@H](C)CC)[C@@H](C)CC)[C@@H](C)O (stereo partly specified) (H-HGDGSFSDE[ξNle]NTILD[ξ2Thi]LAARDFINWLIQTK-NH2) | 0.2 nM | > 1000 nM | > 5000 | 0.366 L/h/kg | inactive |  |
| CCCCC(NC(=O)[C@H](CCC(=O)O)NC(=O)[C@H](CC(=O)O)NC(=O)[C@H](CO)NC(=O)[C@H](Cc1ccccc1)NC(=O)[C@H](CO)NC(=O)CNC(=O)[C@H](CC(=O)O)NC(=O)CNC(=O)[C@@H](N)Cc1cnc[nH]1)C(=O)N[C@@H](CC(N)=O)C(=O)N[C@H](C(=O)N[C@H](C(=O)N[C@@H](CC(C)C)C(=O)N[C@@H](CC(=O)O)C(=O)N[C@@H](Cc1ccccc1)C(=O)N[C@@H](CC(C)C)C(=O)N[C@@H](C)C(=O)N[C@@H](C)C(=O)N[C@@H](CCCNC(=N)N)C(=O)N[C@@H](CC(=O)O)C(=O)N[C@@H](Cc1ccccc1)C(=O)N[C@H](C(=O)N[C@@H](CC(N)=O)C(=O)N[C@@H](Cc1c[nH]c2ccccc12)C(=O)N[C@@H](CC(C)C)C(=O)N[C@H](C(=O)N[C@@H](CCC(N)=O)C(=O)N[C@H](C(=O)N[C@@H](CCCCN)C(N)=O)[C@@H](C)O)[C@@H](C)CC)[C@@H](C)CC)[C@@H](C)CC)[C@@H](C)O (stereo partly specified) (H-HGDGSFSDE[ξNle]NTILDFLAARDFINWLIQTK-NH2) | 0.14 nM | > 1000 nM | > 7100 | 0.354 L/h/kg | inactive |  |
| CCCCC(NC(=O)[C@H](CCC(=O)O)NC(=O)[C@H](CC(=O)O)NC(=O)[C@H](CO)NC(=O)[C@H](Cc1ccccc1)NC(=O)[C@H](CO)NC(=O)CNC(=O)[C@H](CC(=O)O)NC(=O)CNC(=O)[C@@H](N)Cc1cnc[nH]1)C(=O)N[C@@H](CC(N)=O)C(=O)N[C@H](C(=O)N[C@H](C(=O)N[C@@H](CC(C)C)C(=O)N[C@@H](CC(=O)O)C(=O)N[C@@H](Cc1ccc(O)cc1)C(=O)N[C@@H](CC(C)C)C(=O)N[C@@H](C)C(=O)N[C@@H](C)C(=O)N[C@@H](CCCNC(=N)N)C(=O)N[C@@H](CC(=O)O)C(=O)N[C@@H](Cc1ccccc1)C(=O)N[C@H](C(=O)N[C@@H](CC(N)=O)C(=O)N[C@@H](Cc1c[nH]c2ccccc12)C(=O)N[C@@H](CC(C)C)C(=O)N[C@H](C(=O)N[C@@H](CCC(N)=O)C(=O)N[C@H](C(=O)N[C@@H](CCCCN)C(N)=O)[C@@H](C)O)[C@@H](C)CC)[C@@H](C)CC)[C@@H](C)CC)[C@@H](C)O (stereo partly specified) (H-HGDGSFSDE[ξNle]NTILDYLAARDFINWLIQTK-NH2) | 0.11 nM | > 1000 nM | > 9000 | 0.072 L/h/kg | inactive |  |
| CCCCC(NC(=O)[C@H](CCC(=O)O)NC(=O)[C@H](CC(=O)O)NC(=O)[C@H](CO)NC(=O)[C@H](Cc1ccccc1)NC(=O)[C@H](CO)NC(=O)CNC(=O)[C@H](CC(=O)O)NC(=O)CNC(=O)[C@@H](N)Cc1cnc[nH]1)C(=O)N[C@@H](CC(N)=O)C(=O)N[C@H](C(=O)N[C@H](C(=O)N[C@@H](CC(C)C)C(=O)N[C@@H](CC(=O)O)C(=O)NC(CCc1ccccc1)C(=O)N[C@@H](CC(C)C)C(=O)N[C@@H](C)C(=O)N[C@@H](C)C(=O)N[C@@H](CCCNC(=N)N)C(=O)N[C@@H](CC(=O)O)C(=O)N[C@@H](Cc1ccccc1)C(=O)N[C@H](C(=O)N[C@@H](CC(N)=O)C(=O)N[C@@H](Cc1c[nH]c2ccccc12)C(=O)N[C@@H](CC(C)C)C(=O)N[C@H](C(=O)N[C@@H](CCC(N)=O)C(=O)N[C@H](C(=O)N[C@@H](CCCCN)C(N)=O)[C@@H](C)O)[C@@H](C)CC)[C@@H](C)CC)[C@@H](C)CC)[C@@H](C)O (stereo partly specified) (H-HGDGSFSDE[ξNle]NTILD[ξhPhe]LAARDFINWLIQTK-NH2) | 0.11 nM | > 1000 nM | > 9000 | 0.0264 L/h/kg | inactive |  |
| CCCC[C@H](NC(=O)[C@H](CCC(=O)O)NC(=O)[C@H](CC(=O)O)NC(=O)[C@H](CO)NC(=O)[C@H](Cc1ccccc1)NC(=O)[C@H](CO)NC(=O)CNC(=O)[C@H](CC(=O)O)NC(=O)CNC(=O)[C@@H](N)Cc1cnc[nH]1)C(=O)N[C@H](Cc1ccccc1)C(=O)N[C@H](C(=O)N[C@H](C(=O)N[C@@H](CC(C)C)C(=O)N[C@@H](CC(=O)O)C(=O)N[C@@H](CC(N)=O)C(=O)N[C@@H](CC(C)C)C(=O)N[C@@H](C)C(=O)N[C@@H](C)C(=O)N[C@@H](CCCNC(=N)N)C(=O)N[C@@H](CC(=O)O)C(=O)N[C@@H](Cc1ccccc1)C(=O)N[C@H](C(=O)N[C@@H](CC(N)=O)C(=O)N[C@@H](Cc1c[nH]c2ccccc12)C(=O)N[C@@H](CC(C)C)C(=O)N[C@H](C(=O)N[C@@H](CCC(N)=O)C(=O)N[C@H](C(=O)N[C@@H](CCCCN)C(N)=O)[C@@H](C)O)[C@@H](C)CC)[C@@H](C)CC)[C@@H](C)CC)[C@@H](C)O | 0.09 nM | 120 nM |  |  |  | 0.039 |
| CCCCC(NC(=O)[C@H](CCC(=O)O)NC(=O)[C@H](CC(=O)O)NC(=O)[C@H](CO)NC(=O)[C@H](Cc1ccccc1)NC(=O)[C@H](CO)NC(=O)CNC(=O)[C@H](CC(=O)O)NC(=O)CNC(=O)[C@@H](N)Cc1cnc[nH]1)C(=O)N[C@@H](CC(N)=O)C(=O)N[C@H](C(=O)N[C@H](C(=O)N[C@@H](CC(C)C)C(=O)N[C@@H](CC(=O)O)C(=O)N[C@@H](Cc1c[nH]c2ccccc12)C(=O)N[C@@H](CC(C)C)C(=O)N[C@@H](C)C(=O)N[C@@H](C)C(=O)N[C@@H](CCCNC(=N)N)C(=O)N[C@@H](CC(=O)O)C(=O)N[C@@H](Cc1ccccc1)C(=O)N[C@H](C(=O)N[C@@H](CC(N)=O)C(=O)N[C@@H](Cc1c[nH]c2ccccc12)C(=O)N[C@@H](CC(C)C)C(=O)N[C@H](C(=O)N[C@@H](CCC(N)=O)C(=O)N[C@H](C(=O)N[C@@H](CCCCN)C(N)=O)[C@@H](C)O)[C@@H](C)CC)[C@@H](C)CC)[C@@H](C)CC)[C@@H](C)O (stereo partly specified) (H-HGDGSFSDE[ξNle]NTILDWLAARDFINWLIQTK-NH2) | 0.15 nM | > 1000 nM | > 6600 | 0.03 L/h/kg | inactive |  |
| CCCCC(NC(=O)[C@H](CCC(=O)O)NC(=O)[C@H](CC(=O)O)NC(=O)[C@H](CO)NC(=O)[C@H](Cc1ccccc1)NC(=O)[C@H](CO)NC(=O)CNC(=O)[C@H](CC(=O)O)NC(=O)CNC(=O)[C@@H](N)Cc1cnc[nH]1)C(=O)N[C@@H](CC(N)=O)C(=O)N[C@H](C(=O)N[C@H](C(=O)N[C@@H](CC(C)C)C(=O)N[C@@H](CC(=O)O)C(=O)N[C@@H](Cc1cnc[nH]1)C(=O)N[C@@H](CC(C)C)C(=O)N[C@@H](C)C(=O)N[C@@H](C)C(=O)N[C@@H](CCCNC(=N)N)C(=O)N[C@@H](CC(=O)O)C(=O)N[C@@H](Cc1ccccc1)C(=O)N[C@H](C(=O)N[C@@H](CC(N)=O)C(=O)N[C@@H](Cc1c[nH]c2ccccc12)C(=O)N[C@@H](CC(C)C)C(=O)N[C@H](C(=O)N[C@@H](CCC(N)=O)C(=O)N[C@H](C(=O)N[C@@H](CCCCN)C(N)=O)[C@@H](C)O)[C@@H](C)CC)[C@@H](C)CC)[C@@H](C)CC)[C@@H](C)O (stereo partly specified) (H-HGDGSFSDE[ξNle]NTILDHLAARDFINWLIQTK-NH2) | 0.42 nM | > 1000 nM | > 2300 | 0.0078 L/h/kg | inactive |  |
| CCCC[C@H](NC(=O)[C@H](CCC(=O)O)NC(=O)[C@H](CC(=O)O)NC(=O)[C@H](CO)NC(=O)[C@H](Cc1ccccc1)NC(=O)[C@H](CO)NC(=O)CNC(=O)[C@H](CC(=O)O)NC(=O)CNC(=O)[C@@H](N)Cc1cnc[nH]1)C(=O)N[C@H](Cc1ccccc1)C(=O)N[C@H](C(=O)N[C@H](C(=O)N[C@@H](CC(C)C)C(=O)N[C@@H](CC(=O)O)C(=O)N[C@@H](CC(C)C)C(=O)N[C@@H](CC(C)C)C(=O)N[C@@H](C)C(=O)N[C@@H](C)C(=O)N[C@@H](CCCNC(=N)N)C(=O)N[C@@H](CC(=O)O)C(=O)N[C@@H](Cc1ccccc1)C(=O)N[C@H](C(=O)N[C@@H](CC(N)=O)C(=O)N[C@@H](Cc1c[nH]c2ccccc12)C(=O)N[C@@H](CC(C)C)C(=O)N[C@H](C(=O)N[C@@H](CCC(N)=O)C(=O)N[C@H](C(=O)N[C@@H](CCCCN)C(N)=O)[C@@H](C)O)[C@@H](C)CC)[C@@H](C)CC)[C@@H](C)CC)[C@@H](C)O | 0.08 nM | > 1000 nM |  |  |  | 0.024 |
